This assay has as its target T1, abc isoform of human TMEM16A channel expressed in CHO cells (Homo sapiens, UniProt Q5XXA6, DEL476-501).
T1 construct: expressed in transfected cells; host or cells: CHO cells, doxycycline-inducible expression under Blasticidin/Zeocin selection
T1 sequence (Q5XXA6 with tags, fused parts or gaps isoform Q5XXA6-5 DEL539-564): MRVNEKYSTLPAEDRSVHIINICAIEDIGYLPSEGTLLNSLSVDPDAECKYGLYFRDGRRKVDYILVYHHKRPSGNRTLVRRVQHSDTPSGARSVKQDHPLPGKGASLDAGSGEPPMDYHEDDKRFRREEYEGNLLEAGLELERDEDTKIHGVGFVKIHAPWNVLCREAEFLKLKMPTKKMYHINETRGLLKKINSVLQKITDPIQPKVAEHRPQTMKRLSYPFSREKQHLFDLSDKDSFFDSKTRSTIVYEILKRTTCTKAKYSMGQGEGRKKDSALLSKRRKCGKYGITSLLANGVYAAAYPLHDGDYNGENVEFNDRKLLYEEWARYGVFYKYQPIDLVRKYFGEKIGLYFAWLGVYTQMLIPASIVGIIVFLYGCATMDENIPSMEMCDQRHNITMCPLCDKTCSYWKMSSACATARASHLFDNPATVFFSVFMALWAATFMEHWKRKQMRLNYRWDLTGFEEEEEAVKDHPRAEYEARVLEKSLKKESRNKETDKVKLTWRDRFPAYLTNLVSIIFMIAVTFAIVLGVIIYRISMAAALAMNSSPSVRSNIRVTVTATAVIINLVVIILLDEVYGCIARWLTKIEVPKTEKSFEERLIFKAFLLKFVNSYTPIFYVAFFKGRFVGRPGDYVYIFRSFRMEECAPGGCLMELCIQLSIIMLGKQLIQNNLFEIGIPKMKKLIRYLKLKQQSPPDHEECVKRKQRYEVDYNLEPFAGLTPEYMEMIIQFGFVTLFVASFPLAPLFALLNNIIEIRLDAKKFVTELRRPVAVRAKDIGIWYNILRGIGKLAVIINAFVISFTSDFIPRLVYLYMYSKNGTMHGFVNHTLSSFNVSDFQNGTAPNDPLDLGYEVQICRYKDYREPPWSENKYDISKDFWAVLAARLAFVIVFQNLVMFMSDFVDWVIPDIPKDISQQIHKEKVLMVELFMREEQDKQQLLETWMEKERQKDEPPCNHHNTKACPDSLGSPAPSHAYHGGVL
In words: Automated patch clamping (QPatch) assay to measure TMEM16A activity in whole-cell. Type of assay: cell-based. Particulars: for EC50: CHO cells expressing human TMEM16A (abc), whole-cell automated patch clamp, Hill fit, read-out: TMEM16A QPATCH assay EC50 V3 EC50; for Emax: CHO, read-out: TMEM16A QPATCH assay EC50 V3 Assay Window (% TMEM16A max activation); for Emax / TMEM16A QPATCH assay EC50 V3 Assay Window (% TMEM16A max activation): maximum current at highest dose relative to reference potentiator at maximal concentration (upper limit) and vehicle (lower limit). On the procedure:
Automated Patch Clamping Assay to Measure TMEM16A Activity in Whole-Cell
Chinese hamster ovary cells (CHO) cells expressing abc isoform of human TMEM16A channel (Ref) were grown in vented cell-culture flasks (Corning) containing cell culture medium (1×F-12 Ham, 10% FBS, 1% Penicillin-streptomycin, 5 μg/mL Blasticidin S HCl, 400 μg/mL Zeocin), maintained at 37° C. in an incubator with 5% C02, 95% 02 and 100% humidity. The cells were passaged every 2-3 days at 80-90% confluence by aspirating the cell culture medium, washing twice with 10 mL D-PBS then incubating with 4 mL Trypsin-EDTA for no longer than 5 minutes. Trypsin was neutralized with the addition of 32 mL growth medium to the cell suspension, the cells were counted using a viable-cell counter (Vi-CELL; Beckmann-Coulter) and new flasks were seeded at a cell density of 0.01, 0.02, or 0.05×10^6 cells per cm2 for 3, 2, or 1 day(s) growth, respectively. Cell suspension was diluted in the new 175 cm2 flask with 50 mL of growth medium. Doxycycline was used to induce the expression of TMEM16A channel protein and was added directly to the culture flask 18-24 hours in advance of assay at a final concentration of 1 μg/mL. Induced cells were washed with D-PBS and detached from their culture flasks by adding 10 mL of Detachin and incubating for 10 minutes. Once detached, 5 mL of QPatch assay medium (1×CHO-S-SFM II (Sigma), 25 mM HEPES) was added and the resultant cell suspension counted using the Vi-CELL viable cell counter. The optimal cell density for this QPatch assay is 2-5×1 06 cells/mL; re-adjusted as necessary with QPatch assay medium.
The ion channel activity of TMEM16A (abc) expressed in CHO cells was assed using an automated patch clamp system (Qpatch, Sophion). These systems use planar patch-clamp technology to enable high-resistance, continuous whole-cell recordings from multiple cells in parallel, whilst maintaining each individual cell as an isolated experiment. First, each well was primed with intracellular and extracellular solutions described below. Cells were spun down, washed and then resuspended using extracellular solution. Intracellular solution: 130 mM N-methyl-D-glucamine, 10 mM EGTA, 20 mM CaCl2, 1 mM MgCl2, 10 mM HEPES 10, 10 mM BAPTA, 99 mM Sucrose, 2 mM Mg-ATP, pH 7.3, 320 mOsm Extracellular solution: 130 mM N-methyl-D-glucamine, 10 mM EGTA, 20 mM CaCl2, 1 mM MgCl2, 10 mM HEPES 10, 10 mM BAPTA, 99 mM Sucrose, 2 mM Mg-ATP, pH 7.3, 320 mOsm. Resuspended cells were then added to each well and suction was applied from the intracellular side in order to position a cell on the chip aperture, form a high resistance (GO) seal and achieve a whole-cell recording configuration. Following successful whole cell access, cell membranes were maintained at a voltage of −70 mV until the voltage protocol is applied. From this voltage, membranes were depolarized to +70 mV for 1500 ms, and then hyperpolarized to […] before being depolarized again from −90 to +70 mV in a continuous ramp waveform. At the end of the ramp, the membrane voltage is stepped back to −70 mV until the next waveform was applied. Compounds were dissolved at 10 mM in 100% DMSO and then diluted into extracellular solution (0.3% DMSO final) to the desired final concentration. The assay lower and upper limit were defined as follow, average amplitude (nA) of the last 3 sweeps in the vehicle addition of each cell was considered the basal current (lower limit); the average maximum current response in 3 cells for a reference potentiator at maximal concentration (upper limit). Current values for each compound concentration were then plotted against […]. EC50 curves are fitted to concentration-response data using curve-fitting functions (Hill fit) within the QPatch software. Curve fitting is constrained between the lowest concentration (vehicle-only addition) and the highest current value measured within the concentration range. […]

“And” between values parts separate entries of the source, which are not always exact repeats. Equal values may be shown once.

As usually defined, the EC50 is the concentration needed to bring the measured effect to its halfway point.

Take `CCC(CC)NC(=O)c1cnc(-c2cccc(-c3cc(C(=O)N[C@@H](C)[C@H]4CCCO4)n[nH]3)c2)o1` (single isomer, unassigned) [3.0 (i)]: the EC50 was 490 nM and the Emax was 92%.

With `CCC(CC)NC(=O)c1cnc(-c2cccc(-c3cc(C(=O)N[C@@H](C)[C@@H]4CCCO4)n[nH]3)c2)o1` (single isomer, unassigned) [3.0 (ii)], the EC50 amounted to 950 nM and the Emax turned out to be 79%.

Regarding `COC(=O)[C@@H](NC(=O)c1cnc(-c2cccc(-c3cc(C(=O)N[C@@H](C)C4CC4)n(CC(O)C(F)(F)F)n3)c2)o1)C(C)C` (single isomer, unassigned) [8.1 (i)], the EC50 amounted to 10 nM and the Emax amounted to 135%.

Regarding `COC(=O)[C@@H](NC(=O)c1cnc(-c2cccc(-c3cc(C(=O)N[C@@H](C)C4CC4)n(CC(O)C(F)(F)F)n3)c2)o1)C(C)C` (single isomer, unassigned) [8.1 (ii)], the EC50 is 20 nM and the “TMEM16A QPATCH assay EC50 V3 Assay Window (% TMEM16A max activation)” value is 124%.

Regarding `CCOC(=O)[C@@H](NC(=O)c1cnc(-c2cccc(-c3cc(C(=O)NC(C4CC4)C(F)(F)F)[nH]n3)c2)o1)C(C)C` (single isomer, unassigned) [Example 2.3 (i)], the EC50 is 30 nM and the Emax stood at 86%.

With `CCOC(=O)[C@@H](NC(=O)c1cnc(-c2cccc(-c3cc(C(=O)NC(C4CC4)C(F)(F)F)[nH]n3)c2)o1)C(C)C` (single isomer, unassigned) [Example 2.3 (ii)], the EC50 was 80 nM and the “TMEM16A QPATCH assay EC50 V3 Assay Window (% TMEM16A max activation)” value was determined as 97%.

Consider `CCC(CC)NC(=O)c1cnc(-c2cccc(-c3cc(C(=O)NC(C4CC4)C4CCCO4)n[nH]3)c2)o1` (single isomer, unassigned) [Example 3.4 (i), 2-(3-(3-((Cyclopropyl(Tetrahydrofuran-2-Yl)Methyl)Carbamoyl)-1H-Pyrazol-5-Yl)Phenyl)-N-(Pentan-3-Yl)Oxazole-5-Carboxamide], for which the EC50 is 710 nM and the “TMEM16A QPATCH assay EC50 V3 Assay Window (% TMEM16A max activation)” value is on record as 90%.

In the case of `CCC(CC)NC(=O)c1cnc(-c2cccc(-c3cc(C(=O)NC(C4CC4)C4CCCO4)n[nH]3)c2)o1` (single isomer, unassigned) [Example 3.4 (ii), 2-(3-(3-((Cyclopropyl(Tetrahydrofuran-2-Yl)Methyl)Carbamoyl)-1H-Pyrazol-5-Yl)Phenyl)-N-(Pentan-3-Yl)Oxazole-5-Carboxamide], the EC50 came out at 260 nM and the “TMEM16A QPATCH assay EC50 V3 Assay Window (% TMEM16A max activation)” value is 115%.

On to `CCC(CC)NC(=O)c1cnc(-c2cccc(-c3cc(C(=O)NC(C4CC4)C4CCCO4)n[nH]3)c2)o1` (single isomer, unassigned) [Example 3.4 (iii), 2-(3-(3-((Cyclopropyl(Tetrahydrofuran-2-Yl)Methyl)Carbamoyl)-1H-Pyrazol-5-Yl)Phenyl)-N-(Pentan-3-Yl)Oxazole-5-Carboxamide], for which the EC50 was found to be 550 nM and the “TMEM16A QPATCH assay EC50 V3 Assay Window (% TMEM16A max activation)” value stood at 73%.

Consider `CCC(CC)NC(=O)c1cnc(-c2cccc(-c3cc(C(=O)NC(C4CC4)C4CCCO4)n[nH]3)c2)o1` (single isomer, unassigned) [Example 3.4 (iv), 2-(3-(3-((Cyclopropyl(Tetrahydrofuran-2-Yl)Methyl)Carbamoyl)-1H-Pyrazol-5-Yl)Phenyl)-N-(Pentan-3-Yl)Oxazole-5-Carboxamide], for which the EC50 is 380 nM and the “TMEM16A QPATCH assay EC50 V3 Assay Window (% TMEM16A max activation)” value was found to be 73%.

Turning to `CCC(CC)NC(=O)c1cnc(-c2cccc(-c3cc(C(=O)N[C@@H](C#N)CC)n[nH]3)c2)o1` (single isomer, unassigned) [Example 3.26, (R)-2-(3-(3-((1-Cyanopropyl)Carbamoyl)-1H-Pyrazol-5-Yl)Phenyl)-N-(Pentan-3-Yl)Oxazole-5-Carboxamide or (S)-2-(3-(3-((1-Cyanopropyl)Carbamoyl)-1H-Pyrazol-5-Yl)Phenyl)-N-(Pentan-3-Yl)Oxazole-5-Carboxamide], the EC50 came to 240 nM and the “TMEM16A QPATCH assay EC50 V3 Assay Window (% TMEM16A max activation)” value was 109%.

As to `C[C@H](NC(=O)c1cc(-c2cccc(-c3ncc(C(=O)NC(C4CC4)C4CC4)o3)c2)nn1CC(O)C(F)(F)F)C1CC1` (single isomer, unassigned) [Example 9.2 (i)], the EC50 is 130 nM and the “TMEM16A QPATCH assay EC50 V3 Assay Window (% TMEM16A max activation)” value was found to be 115%.

For the compound `C[C@H](NC(=O)c1cc(-c2cccc(-c3ncc(C(=O)NC(C4CC4)C4CC4)o3)c2)nn1CC(O)C(F)(F)F)C1CC1` (single isomer, unassigned) [Example 9.2 (ii)], the EC50 amounted to 40 nM and the “TMEM16A QPATCH assay EC50 V3 Assay Window (% TMEM16A max activation)” value worked out at 83%.

As for `CCOC(=O)[C@@H](NC(=O)c1cnc(-c2cccc(-c3cc(C(=O)N[C@@H](C)C4CC4)n[nH]3)c2)o1)C(C)C` [Example 1.0, (S)-Ethyl 2-(2-(3-(3-(((S)-1-Cyclopropylethyl)Carbamoyl)-1H-Pyrazol-5-Yl)Phenyl)Oxazole-5-Carboxamido)-3-Methylbutanoate], the EC50 was 40 nM and the Emax was 79%.

Take `CCOC(=O)[C@@H](NC(=O)c1cnc(-c2cccc(-c3cc(C(=O)NC(CC)CC)n[nH]3)c2)o1)C(C)C` [Example 1.1, (S)-Ethyl 3-Methyl-2-(2-(3-(3-(Pentan-3-Ylcarbamoyl)-1 H-Pyrazol-5-Yl)Phenyl)Oxazole-5-Carboxamido)Butanoate]: the EC50 was 20 nM and 10 nM; the Emax was 90%; the “TMEM16A QPATCH assay EC50 V3 Assay Window (% TMEM16A max activation)” value amounted to 100%.

On to `CCC(CC)NC(=O)c1cc(-c2cccc(-c3ncc(C(=O)NC4CCCC4)o3)c2)[nH]n1` [Example 1.2], for which the EC50 turned out to be 800 nM and the Emax was 83%.
